# In PubChem BioAssay (NCI):
#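 Cells were grown in 96-well plates and exposed to each compound for 48 hours at five concentrations; endpoints were interpolated linearly between bracketing concentrations, or set to the highest concentration if not reached. Here, GI50 denotes the concentration required for 50% inhibition of growth. TGI denotes the concentration required for complete inhibition of growth.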
# Experiments:
# Assay in all cases: inhibition of tumour cell growth, NCI panel, 48 h
# [1] = tested on: SNB-19 CNS
# [2] = tested on: EKVX NSCLC
# [3] = tested on: DU-145 prostate
# [4] = tested on: 786-0 renal
# [5] = tested on: CCRF-CEM leukemia
# [6] = tested on: LOX IMVI melanoma
# [7] = tested on: KM12 colon
# [8] = tested on: SK-MEL-5 melanoma
# [9] = tested on: SN12C renal
# [10] = tested on: RXF 393 renal
Compound,GI50 [1] [µM],TGI [1] [µM],GI50 [2] [µM],TGI [2] [µM],GI50 [3] [µM],TGI [3] [µM],GI50 [4] [µM],TGI [4] [µM],GI50 [5] [µM],TGI [5] [µM],GI50 [6] [µM],TGI [6] [µM],GI50 [7] [µM],TGI [7] [µM],GI50 [8] [µM],TGI [8] [µM],GI50 [9] [µM],TGI [9] [µM],GI50 [10] [µM],TGI [10] [µM]
CN(Cc1cnc2nc(N)nc(N)c2n1)c1c(Cl)cc(C(=O)NC(CCC(=O)O)C(=O)O)cc1Br (stereo not drawn),0.031,> 100,< 0.0282,> 100,< 0.01,> 100,< 0.01,> 100,< 0.01,> 100,< 0.01,> 100,< 0.01,> 100,0.0313,> 100,< 0.01,> 100,0.345,> 100
COc1ccc(-c2nc3sccn3c2/C=C/C(=O)c2cc(OC)c(OC)c(OC)c2)cc1,3.32,> 100,3.1,> 100,2.86,12.9,3.7,> 100,3.4,53.1,2.11,6.59,2.56,7.75,1.42,2.98,3,> 100,3.09,> 100
O=[N+]([O-])/C=C/c1cn(CCCCCCCCn2cc(/C=C/[N+](=O)[O-])c3ccccc32)c2ccccc12,–,> 10,–,> 10,–,> 10,–,> 10,–,> 10,–,> 10,–,> 10,–,> 10,–,> 10,–,> 10
COc1cc(C(=O)/C=C/c2c(C)n([O-])c3ccc(Cl)cc3[n+]2=O)cc(OC)c1OC,30.2,> 100,8.46,> 100,4.2,> 100,13.2,92.4,2.14,18.3,5.78,> 100,23.2,> 100,12.1,> 100,10.4,> 100,3.37,91
COC1CCC(OS(C)(=O)=O)C(C)O1 (stereo not drawn),–,> 10,–,> 10,–,> 10,–,> 10,–,> 10,–,> 10,–,> 10,–,> 10,–,> 10,–,> 10
COc1ccc2c(c1)CCC1C2CCC2(C)C(NC(=O)CCCCC3CCSS3)CCC12 (stereo not drawn),> 100,> 100,> 100,> 100,> 100,> 100,> 100,> 100,6.26,> 100,32.5,> 100,4.54,> 100,3.26,20.3,16.4,> 100,27,> 100
COc1cc(C(=O)Nc2ccc(-c3nc4ccccc4[nH]3)cc2)cc(OC)c1OC,11.6,29.1,–,–,11.2,25.3,11.8,28.6,7.9,39.3,11.2,30.9,9.22,32.5,11.5,25.9,10.3,25.5,10.7,30.9
